Data reported in US8535740B2, “Compositions from Nigella sativa” (priority 2002, dated 2013).
Marks after values point to notes of the source that are not given here.

Assays:
Caco-2 monolayers = assay: t10-CLA-induced loss of transepithelial electrical resistance in Caco-2 monolayers; type: cell-based, human
From the text: Caco-2 Cells-The protocol for growing and differentiation the human Caco-2 colon andenocarcinoma cells was a modification of Protocol 3 as described by Yamashita et al. [[…]., and Furuyama, Y. (2002) New and better protocols for a short-term Caco-2 cell culture system, J Pharm Sci 91, 669-679]. Caco-2 Human Colon Adenocarcinoma cells were obtained from ATCC (Rockville, Md.; catalog #HTB-37) and maintained in a growth media: DMEM (Dulbecco's Modified Eagles Medium 1×) containing L-glutamine, glucose; Cellgro catalog #35-010CV with the following additions: (1) Penicillin (5,000 IU/mL)/Streptomycin (5,000 μg/mL) Cellgro catalog #30-001C1, (2) 10% FBS-Fetal Bovine Serum, Characterized; Hyclone catalog #SH30071.3, and (3) 1% NEAA-Non Essential Amino Acids; Cellgro catalog #25-025-CI; cells were cultured at 37 C in a humidified air-5% CO2 atmosphere in T175 flasks. Differentiation of Caco-2 cells to intestinal epithelial cells-BIOCOAT^R HTS Caco-2 Assay System kits (Becton Dickinson, N.J.; catalog #354801) consisting of 24-well fibrillar collagen coated inserts and feeder trays were used in all experiments and plated as follows. Media was removed from the T175 flasks and cells were washed with 10 mLs PBS (phosphate buffered saline 1× without Ca^++, without Mg^++; Cellgro #25-053-CI). PBS was removed and 5 mL of Trypsin/EDTA (1×, 0.25% Trypsin/2.21 mM EDTA in HBSS; Cellgro #25-053-CI) were added to the flask and the flask placed at 37 C until cells were visibly floating, approximately 3-5 minutes. Five mL of growth media were added to the flask to neutralize the trypsin. This solution was then transferred to a sterile 50 mL tube. Eight μL were sampled and placed in a hemocytometer for counting under a microscope. Five-hundred μL of cell solution were placed in the upper chamber of each insert so that the final density per well was at least 6.6×10^5 cells/cm^2. Thirty-five mL of growth media were then added to the feeder tray and plate incubated at 37 C with 5% CO2 and 100% humidity for 20-24 hours. […]

[1] = test system: LPS-stimulated macrophages; details: published results, El-Mahmoudy 2002; cited from earlier work

For `CC1=CC(=O)C(C(C)C)=CC1=O` [Thymoquinone (Sigma), thymoquinone], the “Relative Loss of TEER” value (Caco-2 monolayers; 50 μM t10-CLA stimulus, positive control set to 100, each material at its tabulated concentration (TQ 5.0, NS8 0.11, NS9 0.99, NS10 0.012, NSSpent#2 0.0005 μg TQ equivalents/mL; Spent#1 5 μg/mL)) is listed as 44.5*, the “effect on loss of TEER in t10-CLA-stimulated Caco-2 cells” value (Caco-2 monolayers; concentrations of Table 7) is listed as “inhibited loss of TEER” and the “IC50 for NO inhibition in LPS-stimulated macrophages” value [1] is listed as 1.4 to 2.8 µg/mL.
